The numbers were not newly measured in publication PMC9516332 (Frontiers in Oncology, 2022), which cites them from elsewhere.

Common to all, as to settings: cited from earlier work
Series [1] has as its target T1, panel of 255 wild-type kinases (Homo sapiens, UniProt P54762).
T1 sequence (P54762 18-984): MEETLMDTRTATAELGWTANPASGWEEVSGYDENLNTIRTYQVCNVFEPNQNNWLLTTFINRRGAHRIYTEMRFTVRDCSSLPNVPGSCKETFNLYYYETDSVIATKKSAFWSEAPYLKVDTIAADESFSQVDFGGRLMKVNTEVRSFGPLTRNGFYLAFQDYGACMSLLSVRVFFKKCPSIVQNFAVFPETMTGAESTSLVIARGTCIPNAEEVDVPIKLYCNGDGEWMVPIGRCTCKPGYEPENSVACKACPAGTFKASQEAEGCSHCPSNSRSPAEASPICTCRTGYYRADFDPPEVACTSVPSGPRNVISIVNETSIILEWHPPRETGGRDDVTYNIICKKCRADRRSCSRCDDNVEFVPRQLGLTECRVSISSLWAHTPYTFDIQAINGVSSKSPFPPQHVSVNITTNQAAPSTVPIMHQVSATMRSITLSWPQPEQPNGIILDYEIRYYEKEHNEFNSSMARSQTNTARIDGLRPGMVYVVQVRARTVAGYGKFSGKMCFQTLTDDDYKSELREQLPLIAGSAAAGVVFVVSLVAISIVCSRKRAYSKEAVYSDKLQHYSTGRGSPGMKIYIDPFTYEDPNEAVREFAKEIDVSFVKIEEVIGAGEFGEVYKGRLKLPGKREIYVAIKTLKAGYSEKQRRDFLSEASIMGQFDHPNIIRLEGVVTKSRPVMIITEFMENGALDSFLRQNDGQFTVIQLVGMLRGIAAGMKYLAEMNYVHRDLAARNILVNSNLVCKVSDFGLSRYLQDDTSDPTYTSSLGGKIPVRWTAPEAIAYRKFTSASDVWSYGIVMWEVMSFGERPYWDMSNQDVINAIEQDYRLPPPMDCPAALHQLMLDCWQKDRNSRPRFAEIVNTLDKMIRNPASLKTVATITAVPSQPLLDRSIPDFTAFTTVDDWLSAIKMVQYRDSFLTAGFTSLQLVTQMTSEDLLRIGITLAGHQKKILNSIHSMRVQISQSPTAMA

The target of series [2] is T2, panel of 255 wild-type kinases (Homo sapiens, UniProt P30530).
T2 sequence (P30530 26-894): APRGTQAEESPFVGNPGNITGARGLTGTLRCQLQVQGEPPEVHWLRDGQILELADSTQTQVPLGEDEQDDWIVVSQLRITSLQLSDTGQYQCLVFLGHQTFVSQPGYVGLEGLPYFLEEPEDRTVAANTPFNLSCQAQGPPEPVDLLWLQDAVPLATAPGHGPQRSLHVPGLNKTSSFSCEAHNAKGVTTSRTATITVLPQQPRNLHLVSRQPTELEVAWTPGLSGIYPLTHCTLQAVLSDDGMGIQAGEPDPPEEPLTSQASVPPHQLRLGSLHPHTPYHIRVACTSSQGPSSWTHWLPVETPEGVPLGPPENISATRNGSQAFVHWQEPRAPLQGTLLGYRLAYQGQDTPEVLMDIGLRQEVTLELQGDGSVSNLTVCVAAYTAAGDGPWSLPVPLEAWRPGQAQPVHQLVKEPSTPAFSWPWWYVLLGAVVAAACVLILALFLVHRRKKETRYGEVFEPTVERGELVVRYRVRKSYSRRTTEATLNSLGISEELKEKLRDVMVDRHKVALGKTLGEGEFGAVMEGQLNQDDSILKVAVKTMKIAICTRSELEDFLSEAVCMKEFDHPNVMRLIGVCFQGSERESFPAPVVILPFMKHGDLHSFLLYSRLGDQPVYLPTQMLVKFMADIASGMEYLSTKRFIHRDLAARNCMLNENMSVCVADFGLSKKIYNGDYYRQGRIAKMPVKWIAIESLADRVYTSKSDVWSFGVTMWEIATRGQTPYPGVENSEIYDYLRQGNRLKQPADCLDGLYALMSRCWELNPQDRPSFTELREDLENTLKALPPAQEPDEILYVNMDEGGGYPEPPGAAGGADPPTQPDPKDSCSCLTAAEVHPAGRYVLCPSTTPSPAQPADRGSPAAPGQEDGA

Series [3] has as its target panel of 255 wild-type kinases (Homo sapiens, UniProt O43683).
The target in series [4] is panel of 255 wild-type kinases (Homo sapiens, UniProt Q13554).
The target in series [5] is panel of 255 wild-type kinases (Homo sapiens, UniProt Q14289).
Setting [6] is: kinase EPHB1, 1 µmol/L single concentration, ref DOI: 10.1158/1535-7163.MCT-18-0877.
Setting [7] is: AXL kinase assay, 1 µmol/L single concentration, ref DOI: 10.1158/1535-7163.MCT-18-0877.
Setting [8] is: BUB1/BUB3 kinase assay, 1 µmol/L single concentration, ref DOI: 10.1158/1535-7163.MCT-18-0877.
[9] abbreviates: CaMK2β kinase assay, 1 µmol/L single concentration, ref DOI: 10.1158/1535-7163.MCT-18-0877.
Where [10] appears, read: kinase PYK2, 1 µmol/L single concentration, ref DOI: 10.1158/1535-7163.MCT-18-0877.
[11] abbreviates: kinase EPHB1, 1 µmol/L single concentration, ref DOI: 10.1371/journal.pone.0092146.
Setting [12] is: AXL kinase assay, 1 µmol/L single concentration, ref DOI: 10.1371/journal.pone.0092146.
Setting [13] is: CaMK2β kinase assay, 1 µmol/L single concentration, ref DOI: 10.1371/journal.pone.0092146.
The mark [14] stands for this setting: kinase PYK2, 1 µmol/L single concentration, ref DOI: 10.1371/journal.pone.0092146.

Read-outs that look alike come from different tables or passages of the source.

In the case of `C=CC(=O)N1CCC[C@@H](n2nc(-c3ccc(Oc4ccccc4)cc3)c3c(N)ncnc32)C1` [ibrutinib], the “%-inhibition at 1 µmol/L, EPHB1” value in series [1] (setting [6]) is 12%. The “%-inhibition AXL” value in series [2] (setting [7]) is on record as 9%. Moreover, in series [3] (setting [8]), the “%-inhibition BUB1/BUB3” value is given as 5%. Moreover, the “%-inhibition CaMK2β” value in series [4] (setting [9]) is given as -2.56%. Further, in series [5] (setting [10]), the “%-inhibition at 1 µmol/L, PYK2” value is recorded as 3.37%.

On to `CC(=O)Nc1cccc(-n2c(=O)n(C3CC3)c(=O)c3c(Nc4ccc(I)cc4F)n(C)c(=O)c(C)c32)c1` [trametinib], for which the “%-inhibition at 1 µmol/L, EPHB1” value in series [1] (setting [11]) is on record as -8%. In addition, the “%-inhibition AXL” value in series [2] (setting [12]) is on record as -1.12%. Besides, in series [4] (setting [13]), the “%-inhibition CaMK2β” value is 0.738%. Further, the “%-inhibition at 1 µmol/L, PYK2” value in series [5] (setting [14]) is 2.72%.

On to `Cc1cc(Nc2ncc(Cl)c(Nc3ccccc3S(=O)(=O)C(C)C)n2)c(OC(C)C)cc1C1CCNCC1` [ceritinib], for which the “%-inhibition at 1 µmol/L, EPHB1” value in series [1] (setting [6]) is 26%. Besides, the “%-inhibition AXL” value in series [2] (setting [7]) is given as 56%. Also, the “%-inhibition BUB1/BUB3” value in series [3] (setting [8]) is given as 5.67%. Also, the “%-inhibition CaMK2β” value in series [4] (setting [9]) is 23%. In addition, in series [5] (setting [10]), the “%-inhibition at 1 µmol/L, PYK2” value is 100%.

As for `C[C@@H](Oc1cc(-c2cnn(C3CCNCC3)c2)cnc1N)c1c(Cl)ccc(F)c1Cl` [crizotinib], the “%-inhibition at 1 µmol/L, EPHB1” value in series [1] (setting [11]) is 93%.

Turning to `C=CC(=O)Nc1cc(Nc2nccc(-c3cn(C)c4ccccc34)n2)c(OC)cc1N(C)CCN(C)C` [osimertinib], the “%-inhibition at 1 µmol/L, EPHB1” value in series [1] (setting [6]) was 13%. For the same molecule, the “%-inhibition AXL” value in series [2] (setting [7]) is recorded as 43%. In addition, in series [3] (setting [8]), the “%-inhibition BUB1/BUB3” value is 11%. Also, the “%-inhibition CaMK2β” value in series [4] (setting [9]) is reported as 5%. Also, in series [5] (setting [10]), the “%-inhibition at 1 µmol/L, PYK2” value was 62%.

Take `CCCS(=O)(=O)Nc1ccc(F)c(C(=O)c2c[nH]c3ncc(-c4ccc(Cl)cc4)cc23)c1F` [vemurafenib]: in series [1] (setting [11]), the “%-inhibition at 1 µmol/L, EPHB1” value is recorded as -1.63%. The “%-inhibition AXL” value in series [2] (setting [12]) is 20%. Besides, the “%-inhibition CaMK2β” value in series [4] (setting [13]) is -6.64%. The “%-inhibition at 1 µmol/L, PYK2” value in series [5] (setting [14]) was 0.921%.

In the case of `O=C(c1ccc(F)c(F)c1Nc1ccc(I)cc1F)N1CC(O)([C@@H]2CCCCN2)C1` [cobimetinib], the “%-inhibition at 1 µmol/L, EPHB1” value in series [1] (setting [6]) was 4%. Moreover, the “%-inhibition AXL” value in series [2] (setting [7]) was 3%. In addition, the “%-inhibition BUB1/BUB3” value in series [3] (setting [8]) is 6.61%. In addition, the “%-inhibition CaMK2β” value in series [4] (setting [9]) was -0.487%. Further, the “%-inhibition at 1 µmol/L, PYK2” value in series [5] (setting [10]) was 2.5%.

For the molecule `CC(C)(C)c1nc(-c2cccc(NS(=O)(=O)c3c(F)cccc3F)c2F)c(-c2ccnc(N)n2)s1` [dabrafenib], the “%-inhibition at 1 µmol/L, EPHB1” value in series [1] (setting [11]) is given as 12%. Besides, the “%-inhibition AXL” value in series [2] (setting [12]) is 30%. Besides, the “%-inhibition CaMK2β” value in series [4] (setting [13]) is -0.277%. Moreover, in series [5] (setting [14]), the “%-inhibition at 1 µmol/L, PYK2” value is reported as 56%.

Regarding `CO[C@@H]1[C@H](N(C)C(=O)c2ccccc2)C[C@H]2O[C@]1(C)n1c3ccccc3c3c4c(c5c6ccccc6n2c5c31)C(=O)NC4` [midostaurin], the “%-inhibition AXL” value in series [2] (setting [7]) was 87%. Besides, in series [3] (setting [8]), the “%-inhibition BUB1/BUB3” value is on record as 6.4%. Moreover, in series [5] (setting [10]), the “%-inhibition at 1 µmol/L, PYK2” value was 72%.

Turning to `CC#CC(=O)N1CCC[C@H]1c1nc(-c2ccc(C(=O)Nc3ccccn3)cc2)c2c(N)nccn12` [acalabrutinib], in series [1] (setting [6]), the “%-inhibition at 1 µmol/L, EPHB1” value is on record as -1.4%. For the same molecule, the “%-inhibition AXL” value in series [2] (setting [7]) is -0.457%. Further, the “%-inhibition BUB1/BUB3” value in series [3] (setting [8]) is given as 5.51%. Moreover, the “%-inhibition CaMK2β” value in series [4] (setting [9]) is -1.09%. The “%-inhibition at 1 µmol/L, PYK2” value in series [5] (setting [10]) is recorded as -3.55%.

Consider `CCc1cc2c(cc1N1CCC(N3CCOCC3)CC1)C(C)(C)c1[nH]c3cc(C#N)ccc3c1C2=O` [alectinib], for which, in series [1] (setting [6]), the “%-inhibition at 1 µmol/L, EPHB1” value is recorded as 21%. Also, in series [2] (setting [7]), the “%-inhibition AXL” value is 59%. For the same molecule, the “%-inhibition BUB1/BUB3” value in series [3] (setting [8]) is 2%. In addition, the “%-inhibition CaMK2β” value in series [4] (setting [9]) is given as 2.14%. For the same molecule, the “%-inhibition at 1 µmol/L, PYK2” value in series [5] (setting [10]) is 47%.

Take `COc1cc(N2CCC(N3CCN(C)CC3)CC2)ccc1Nc1ncc(Cl)c(Nc2ccccc2P(C)(C)=O)n1` [brigatinib]: the “%-inhibition at 1 µmol/L, EPHB1” value in series [1] was 36%. Moreover, the “%-inhibition AXL” value in series [2] was 97%. The “%-inhibition BUB1/BUB3” value in series [3] was 14%. Also, the “%-inhibition CaMK2β” value in series [4] is 64%. For the same molecule, the “%-inhibition at 1 µmol/L, PYK2” value in series [5] is given as 104%.
